These results are taken from patent US20260347399A1, “BRAIN PENETRATING PEPTIDES AND METHODS OF USE” (priority 2022, published 2026).

The test system of data set [1] is GBM and normal brain parenchyma. The data set can be described thus: Synthetic peptide homing in glioma-bearing mice (IHC). The class given is in vivo, mouse. To be noted: synthetic peptide i.v., 1 h; WT-GBM and VEGFko GBM-bearing mice. The protocol: CVGTNCY (SEQ ID NO:2) peptide-phage or control phage were injected iv into mice, after one hour circulation animals were perfused with 20 ml PBS, organs were collected, weighed, and dropped to 1% NP40-LB solution. Organs were homogenized and titer of each tissue was determined. FAM-labeled peptides (2 mM of peptide in PBS) were injected intravenously and 3 hours later the animals were perfused with 20 mL of PBS. The organs were excised, snap-frozen in the vapor of liquid nitrogen, and stored at −80 °C. For confocal microscopy, the tissues were sectioned at 15 μm and stained with antibodies and DAPI.
Cryosections (15 μm) on Superfrost Plus slides were fixed in cold methanol, washed in PBS, treated with 3% hydrogen peroxide, and blocked in PBS containing 0.05% Tween-20, 5% BSA, and 5% goat serum (GE Healthcare, UK) for 1 h. The sections were immunostained with rabbit anti-fluorescein (cat #A889, Thermo Fisher Scientific, MA, USA) antibody overnight at +4 °C. […] Sections were imaged with Leica Aperio VERSA microscope slide scanner. Imaged were processed with Aperio Image Scope (v12.4.3.5008).
The synthetic CVGTNCY (SEQ ID NO:2) peptide or scrambled CVGTNCY (SEQ ID NO:2) homing in WT-GBM and VEGFko GBM-bearing mice was analyzed after i.v. injection and perfusion of the animals. Cryosections of glioma-bearing brains were stained with anti-FAM antibody and tyramide amplification kit to enhance the signal of the peptide.
To assess homing of CVG peptide in glioblastoma, CVGTNCY (SEQ ID NO:2) peptide-phage was injected iv into mice bearing either WT-GBM, VEGFko, U87MG or NCH421k GBM, and to mice without a tumor. At one hour time point mice were perfused, brains and control organs collected and titered. […] (FIGS. 17A-17B) Distribution of CVG peptide in GBM and brain parenchyma was also assessed. CVGTNCY (SEQ ID NO:2) peptide or its scrambled version (CVYTCNG; (SEQ ID NO: 68)) was injected iv into glioma bearing mice, after 1 hour circulation mice were perfused and tissues of interest snap-frozen in liquid nitrogen.

Data set [2] addresses human LRP1 (Homo sapiens, UniProt Q07954). The data set can be described thus: Surface plasmon resonance analysis. The format is binding. The settings on record: SPR. The protocol:
Whether Cerepep (SRRVISRAKLAAAL (SEQ ID NO:9)) binds to human LRP1 purified from placenta was tested using surface plasmon resonance analysis. […] Furthermore, binding of CP-neutravidin complex to LRP1 is inhibited by RAP and EDTA, as can be expected with LRP1 ligands.
To determine which amino acid positions are important for brain homing of SERVISRAKLAAAL (SEQ ID NO:9), a pool of peptide-phage clones was compiled, where every amino acid position was one-by-one changed to alanine (alanines were changed to leucines). The peptide-phages were mixed in equimolar ratio, the Cerepep phage was included as a positive control and insertless as a negative control. The phage mix was injected into mice and following a 1 h circulation the amount of different phage clones in the brain was determined using HTS. […] Surface plasmon resonance analysis with human LRP-1 immobilized on a BIAcore sensor chip was used to assess whether CP-neutravidin complex directly interacts with human LRP-1. Angiopep-2-neutravidin complex was used as a positive control (FIGS. 7A-7B).

Data set [3] relates to Neuro2A cells. The data set can be described thus: Effect of endocytic inhibitors on CP-AgNP uptake (flow cytometry). To be noted: inhibitor 30 min at 37 °C: nystatin 50 μM, cytochalasin D 4 μM, chlorpromazine 30 μM. The class given is cell-based, mouse. The protocol:
[…] The CP-AgNPs or control biotin-AgNPs were then added, and the cells were incubated at 37 °C for 1h, treated with an etching solution to remove accessible surface-bound AgNPs and subsequently washed with DPBS. The fluorescence of the labeled AgNPs was detected using the BD Accuri flow cytometer by monitoring the 555 nm channel FL2 and analyzed using FCS Express 7 software.
To study how treatment with endocytic inhibitors (nystatin, EIPA, cytochalasin D and chlorpromazine) affects the uptake of CP-AgNPs in Neuro2A cells, flow cytometry was used. Nystatin was used to block caveolae/lipid-mediated endocytosis, EIPA to block micropinocytosis, cytochalasin D to block actin polymerization and micropinocytosis and chlorpromazine to block clathrin-mediated endocytosis.

The test system of data set [4] is Huntington's disease subjects. To be noted: human, in vivo; cited from earlier work.
For data set [5], the system named is ADHD / ASD subjects. To be noted: cited from earlier work.
The subject of data set [6] is ALS subjects. The settings on record: human, in vivo, cited from earlier work.
The subject of data set [7] is microglia. The data set can be described thus: FAM-Cerepep colocalization with microglia. The format is in vivo, mouse. To be noted: 100 μl of 2 mM i.v., 2.5 h. The protocol:
To assess the ability of FAM-conjugated to Cerepep to colocalize with microglia, 100 μl of 2 mM FAM-Cerepep or FAM-scramble (SARVISRAKLARAL (SEQ ID NO: 70)) was injected into the tail vein of mice n=3. After 2.5 h of circulation, the animals were anesthetized and perfused, the brains were collected, cryosected, fixed, permeabilized, and incubated with CD11b-rat and anti-fluorescein-rabbit primary antibodies at room temperature for 2 hours. After washes, sections were incubated with Alexa Fluor […] anti-rat and Alexa Fluor 647 anti-rabbit secondary antibodies, sections were washed and stained with DAPI. Pictures were taken under a confocal microscope in 4 different areas of the brain (cortex, cerebellum, hippocampus, brainstem).

Data set [8] deals with mouse brain. The data set can be described thus: FAM-Cerepep brain distribution. The format is in vivo. The settings on record: 100 μl of 2 mM i.v., 2.5 h circulation. The protocol:
To assess the ability of FAM-conjugated to Cerepep to traverse the BBB, 100 μl of 2 mM FAM-Cerepep or FAM-scrambled Control peptide (SARVISRAKLARAL (SEQ ID NO:70)) was injected into the tail vein of mice n=3. After 2.5 h of circulation, the animals were anesthetized and perfused, the brains were collected, cryosected, fixed, permeabilized, and incubated with CD31-rat and anti-fluorescein-rabbit primary antibodies at room temperature for 2 hours. After washes, sections were incubated with Alexa Fluor […] anti-rat and Alexa Fluor 647 anti-rabbit secondary antibodies, washed and stained with DAPI. Images were taken using a confocal microscope in 4 different areas of the brain (cortex, cerebellum, hippocampus, brainstem).
To quantify FAM-Cerepep in different regions of the brain, expts were set up to assess fluorescence intensity. Briefly, 100 μl of 2 mM FAM-Cerepep or FAM-scrambled peptide (SARVISRAKLARAL (SEQ ID NO:70)) was injected into the tail vein of mice n=3. […] Images were taken under a confocal microscope in 4 different areas of the brain (cortex, cerebellum, hippocampus, brainstem), and fluorescence intensity in each brain region was measured and quantified using ImageJ, as depicted in FIGS. 22A-22E.

The test system of data set [9] is mature neurons. The data set can be described thus: FAM-Cerepep colocalization with mature neurons. The class given is in vivo, mouse. To be noted: 100 μl of 2 mM i.v., 2.5 h. The protocol:
(§1) To assess the ability of FAM-conjugated to Cerepep to colocalize with mature neurons, 100 μl of 2 mM FAM-Cerepep or FAM-scramble (SARVISRAKLARAL (SEQ ID NO: 70)) was injected into the tail vein of mice n=3. After 2.5 h of circulation, the animals were anesthetized and perfused, the brains were collected, cryosected, fixed, permeabilized, and incubated with NeuN-mouse and anti-fluorescein-rabbit primary antibodies for 2 hours at room temperature. After washes, sections were incubated with Alexa Fluor […] anti-mouse and Alexa Fluor 647 anti-rabbit secondary antibodies, sections were washed and stained with DAPI. Pictures were taken under a confocal microscope in 4 different areas of the brain (cortex, cerebellum, hippocampus, brainstem).

The subject of data set [10] is Neuro2A cells. The data set can be described thus: In vitro FAM-peptide binding and uptake. The format is cell-based, mouse. To be noted: 30 μM, 1 h, 4 °C (binding) or 37 °C (uptake). The protocol:
To assess the binding and uptake of Cerepep peptide, Neuro2A were cultured in 24-well plates on polylysine coated glass coverslips until 80-90% confluency. FAM-Cerepep (FAM-Ahx-SRRVISRAKLAAAL-OH (SEQ ID NO:9)) or control FAM-RPAR (FAM-RPARPAR-OH (SEQ ID NO:74)) peptide with the final concentration of 30 µM was added to Neuro2A cells in growth media and incubated at 4 °C (to study the binding) or 37 °C (to study the uptake) for 1 h. The cells were washed 4 times with growth media and fixed in methanol. The samples were stained with anti-fluorescein antibody to enhance the FAM signal. The fixed cells were first blocked with PBST (PBS+0.05% Tween 20), 5% BSA, 5% goat serum at RT for 30 min, followed by incubation with rabbit anti-fluorescein IgG (cat. no. A889, Thermo Fisher Scientific, MA, USA) at 4 °C for O/N and Alexa 647 goat anti-rabbit IgG secondary antibody at RT for 1h. Nuclei were counterstained with DAPI at 1 μg/ml. The coverslips were mounted on glass slides with Fluoromount-G (Electron Microscopy Sciences, PA, USA), imaged using confocal microscopy (Olympus FV1200MPE, Tokyo, Japan) and analyzed using the FV10-ASW4.2 software.
The binding (at 4 °C) and uptake (at 37 °C) of synthetic FAM-Cerepep by Neuro2A cells was also studied, comparing it to a control FAM-RPAR peptide which has a similar charge.

The subject of data set [11] is astrocytes. The data set can be described thus: FAM-Cerepep colocalization with astrocytes. The class given is in vivo, mouse. To be noted: 100 μl of 2 mM i.v., 2.5 h. The protocol: as §1, with “astrocytes,” for “mature neurons,”, “NO:70))” for “NO: 70))”, “GFAP-rat” for “NeuN-mouse”, “anti-rat” for “anti-mouse”
The subject of data set [12] is P3 human stem cells. The data set can be described thus: Inhibition of AgNP-Cerepep binding (FACS). The format is cell-based. The settings on record: 4 °C, 1 h. The protocol: Briefly, P3 human stem cells were incubated with the indicated antibody (AB) or RAP (diluted in 20% of glycerol) at 4 °C for 1 h, after cells were exposed to AgNP-control or AgNP-Cerepep for 1 h at 4 °C, then the cells were analyzed by FACS.

“Also recorded” adds a separate entry of the source. Where two headings read alike, the source gives them in different places. Peptide text beside a SMILES is read from it. * marks the point of attachment. 5FAM = O=C1OC2(c3ccc(O)cc3Oc3cc(O)ccc32)c2ccc(C(=O)*)cc21; FAM = 5(6)-carboxyfluorescein; Ahx = NCCCCCC(=O)O

Sequence of human LRP1 (Q07954 20-4544): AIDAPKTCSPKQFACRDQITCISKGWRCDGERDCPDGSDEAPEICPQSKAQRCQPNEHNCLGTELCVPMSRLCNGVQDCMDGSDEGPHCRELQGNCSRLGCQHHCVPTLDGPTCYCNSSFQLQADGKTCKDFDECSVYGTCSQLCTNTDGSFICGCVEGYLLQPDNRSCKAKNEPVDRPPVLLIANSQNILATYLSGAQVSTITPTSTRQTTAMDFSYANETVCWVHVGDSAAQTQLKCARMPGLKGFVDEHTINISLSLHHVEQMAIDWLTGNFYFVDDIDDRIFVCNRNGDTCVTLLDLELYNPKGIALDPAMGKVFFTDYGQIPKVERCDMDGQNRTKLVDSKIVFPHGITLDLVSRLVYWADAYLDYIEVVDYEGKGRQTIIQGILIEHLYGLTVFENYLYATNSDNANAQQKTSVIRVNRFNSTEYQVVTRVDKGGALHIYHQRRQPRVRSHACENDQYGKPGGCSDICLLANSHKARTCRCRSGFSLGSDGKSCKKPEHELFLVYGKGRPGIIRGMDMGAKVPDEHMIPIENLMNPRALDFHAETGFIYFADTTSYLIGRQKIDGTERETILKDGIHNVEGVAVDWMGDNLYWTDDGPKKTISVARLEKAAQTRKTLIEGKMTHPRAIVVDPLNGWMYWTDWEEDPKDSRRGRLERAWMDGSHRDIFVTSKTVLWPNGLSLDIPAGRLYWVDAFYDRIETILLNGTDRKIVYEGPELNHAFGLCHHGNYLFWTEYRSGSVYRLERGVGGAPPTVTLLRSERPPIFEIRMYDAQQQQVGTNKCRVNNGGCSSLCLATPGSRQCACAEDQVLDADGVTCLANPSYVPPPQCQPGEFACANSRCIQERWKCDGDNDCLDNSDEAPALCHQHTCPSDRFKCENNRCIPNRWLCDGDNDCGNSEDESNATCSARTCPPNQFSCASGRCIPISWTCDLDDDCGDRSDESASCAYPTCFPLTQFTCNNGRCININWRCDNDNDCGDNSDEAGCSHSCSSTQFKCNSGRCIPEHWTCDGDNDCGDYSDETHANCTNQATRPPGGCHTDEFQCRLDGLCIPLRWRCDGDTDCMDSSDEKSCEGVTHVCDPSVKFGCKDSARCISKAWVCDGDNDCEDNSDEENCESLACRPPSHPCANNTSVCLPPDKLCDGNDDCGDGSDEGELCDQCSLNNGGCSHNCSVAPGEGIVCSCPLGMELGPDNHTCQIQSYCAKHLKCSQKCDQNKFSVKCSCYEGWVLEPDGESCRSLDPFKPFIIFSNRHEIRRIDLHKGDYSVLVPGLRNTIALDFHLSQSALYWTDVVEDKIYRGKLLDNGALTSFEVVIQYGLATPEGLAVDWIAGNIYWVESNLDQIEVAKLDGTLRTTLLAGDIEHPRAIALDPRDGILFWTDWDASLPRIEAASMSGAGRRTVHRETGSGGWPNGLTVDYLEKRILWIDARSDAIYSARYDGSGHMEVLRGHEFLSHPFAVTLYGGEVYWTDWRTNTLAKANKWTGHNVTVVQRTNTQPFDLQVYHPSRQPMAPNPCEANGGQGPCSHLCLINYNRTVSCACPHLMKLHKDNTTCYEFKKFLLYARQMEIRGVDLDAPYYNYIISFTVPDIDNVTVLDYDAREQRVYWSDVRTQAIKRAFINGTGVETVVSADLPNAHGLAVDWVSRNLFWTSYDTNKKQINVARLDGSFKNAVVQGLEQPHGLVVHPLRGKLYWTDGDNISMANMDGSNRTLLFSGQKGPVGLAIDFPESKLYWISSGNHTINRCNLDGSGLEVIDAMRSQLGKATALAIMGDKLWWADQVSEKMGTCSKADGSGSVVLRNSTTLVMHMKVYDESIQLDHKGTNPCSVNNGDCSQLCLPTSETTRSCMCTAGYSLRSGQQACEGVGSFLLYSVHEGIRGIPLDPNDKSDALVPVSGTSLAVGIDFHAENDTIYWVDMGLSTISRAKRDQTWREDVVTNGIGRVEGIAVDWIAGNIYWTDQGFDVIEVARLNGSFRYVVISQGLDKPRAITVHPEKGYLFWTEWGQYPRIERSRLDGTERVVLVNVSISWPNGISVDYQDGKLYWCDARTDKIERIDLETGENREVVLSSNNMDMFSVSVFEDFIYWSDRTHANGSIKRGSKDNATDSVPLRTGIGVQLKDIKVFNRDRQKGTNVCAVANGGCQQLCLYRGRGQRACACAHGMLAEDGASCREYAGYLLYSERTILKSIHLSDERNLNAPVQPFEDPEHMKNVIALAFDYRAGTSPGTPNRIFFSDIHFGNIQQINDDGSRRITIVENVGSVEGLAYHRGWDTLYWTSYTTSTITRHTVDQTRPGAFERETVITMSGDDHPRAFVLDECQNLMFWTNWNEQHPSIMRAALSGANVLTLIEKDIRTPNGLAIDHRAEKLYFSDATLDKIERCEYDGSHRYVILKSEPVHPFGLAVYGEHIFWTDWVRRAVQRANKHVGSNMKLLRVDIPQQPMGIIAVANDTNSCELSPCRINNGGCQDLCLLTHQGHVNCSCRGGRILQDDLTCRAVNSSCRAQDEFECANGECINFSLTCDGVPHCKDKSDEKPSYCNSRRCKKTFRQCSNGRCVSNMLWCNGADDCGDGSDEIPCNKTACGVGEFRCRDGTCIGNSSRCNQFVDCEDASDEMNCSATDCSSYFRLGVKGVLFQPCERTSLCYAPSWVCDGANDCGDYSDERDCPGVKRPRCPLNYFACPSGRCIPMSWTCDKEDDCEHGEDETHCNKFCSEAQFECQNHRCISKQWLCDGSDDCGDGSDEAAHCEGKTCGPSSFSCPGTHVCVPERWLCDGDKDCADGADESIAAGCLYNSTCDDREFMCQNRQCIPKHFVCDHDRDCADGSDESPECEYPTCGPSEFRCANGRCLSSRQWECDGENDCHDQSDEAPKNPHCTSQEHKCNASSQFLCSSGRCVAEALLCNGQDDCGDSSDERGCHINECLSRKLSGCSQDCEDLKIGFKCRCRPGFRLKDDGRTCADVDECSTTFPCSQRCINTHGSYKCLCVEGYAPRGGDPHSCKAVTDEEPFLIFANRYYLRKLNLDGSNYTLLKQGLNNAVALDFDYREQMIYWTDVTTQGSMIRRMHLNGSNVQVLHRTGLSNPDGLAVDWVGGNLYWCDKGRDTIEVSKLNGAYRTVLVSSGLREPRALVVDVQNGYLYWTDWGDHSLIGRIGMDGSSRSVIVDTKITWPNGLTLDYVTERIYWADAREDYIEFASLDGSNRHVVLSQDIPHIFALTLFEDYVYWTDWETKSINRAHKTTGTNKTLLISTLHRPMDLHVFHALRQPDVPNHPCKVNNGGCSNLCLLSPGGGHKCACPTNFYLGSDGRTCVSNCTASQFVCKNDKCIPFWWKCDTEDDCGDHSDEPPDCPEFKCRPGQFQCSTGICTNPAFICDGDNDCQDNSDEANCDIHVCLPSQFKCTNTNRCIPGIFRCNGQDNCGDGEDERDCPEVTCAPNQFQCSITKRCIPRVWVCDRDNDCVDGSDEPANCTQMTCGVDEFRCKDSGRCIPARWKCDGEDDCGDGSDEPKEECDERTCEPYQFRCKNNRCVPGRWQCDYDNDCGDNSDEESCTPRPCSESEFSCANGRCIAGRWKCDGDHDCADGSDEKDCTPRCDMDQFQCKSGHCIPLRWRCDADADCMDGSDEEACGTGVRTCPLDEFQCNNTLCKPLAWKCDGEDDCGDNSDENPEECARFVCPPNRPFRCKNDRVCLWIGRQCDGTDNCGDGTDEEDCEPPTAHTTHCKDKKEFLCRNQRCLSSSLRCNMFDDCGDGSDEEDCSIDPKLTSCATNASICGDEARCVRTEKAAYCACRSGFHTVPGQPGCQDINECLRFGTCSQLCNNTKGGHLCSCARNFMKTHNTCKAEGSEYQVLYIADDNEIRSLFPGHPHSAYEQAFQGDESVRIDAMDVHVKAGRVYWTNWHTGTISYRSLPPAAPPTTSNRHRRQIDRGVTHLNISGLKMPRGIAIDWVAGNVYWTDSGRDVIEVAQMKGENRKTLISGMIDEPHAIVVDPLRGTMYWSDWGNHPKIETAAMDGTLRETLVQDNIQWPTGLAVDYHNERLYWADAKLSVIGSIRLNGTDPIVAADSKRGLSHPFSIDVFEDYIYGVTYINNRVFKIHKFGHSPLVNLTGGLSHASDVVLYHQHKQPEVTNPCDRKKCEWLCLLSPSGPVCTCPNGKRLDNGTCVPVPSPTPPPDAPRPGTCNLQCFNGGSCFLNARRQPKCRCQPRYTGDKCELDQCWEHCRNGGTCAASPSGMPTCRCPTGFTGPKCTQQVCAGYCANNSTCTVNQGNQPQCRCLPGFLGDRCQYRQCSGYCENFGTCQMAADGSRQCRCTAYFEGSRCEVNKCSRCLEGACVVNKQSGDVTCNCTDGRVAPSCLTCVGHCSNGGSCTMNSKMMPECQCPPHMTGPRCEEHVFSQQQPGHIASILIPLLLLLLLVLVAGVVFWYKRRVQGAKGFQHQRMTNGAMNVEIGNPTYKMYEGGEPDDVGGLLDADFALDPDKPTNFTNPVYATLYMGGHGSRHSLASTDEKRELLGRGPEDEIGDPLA

As to `CC(C)[C@H](NC(=O)[C@H](CS)NC(=O)CCCCCNC(=O)c1ccc2c(c1)C(=O)OC21c2ccc(O)cc2Oc2cc(O)ccc21)C(=O)N[C@@H](Cc1ccc(O)cc1)C(=O)N[C@H](C(=O)N[C@@H](CS)C(=O)N[C@@H](CC(N)=O)C(=O)NCC(=O)O)[C@@H](C)O` [CVYTCNG, reference compound] ({5FAM-Ahx}-CVYTCNG-OH), in data set [1], the “detection in brain parenchyma” value is “not detectable in the brain parenchyma; also recorded: no targeting to brain parenchyma” and the “detection/targeting in GBM” value is reported as “binding was detected in the GBM”. On to `O=C(O)CN(CCN(CC(=O)O)CC(=O)O)CC(=O)O` [EDTA], for which, in data set [2], the “inhibition of CP-neutravidin binding to LRP1” value is reported as “inhibited”. Take `CC1C=CC=CCCC=CC=CC=CC=CC(OC2OC(C)C(O)C(N)C2O)CC2OC(O)(CC(O)C(O)CCC(O)CC(O)CC(O)CC(=O)OC(C)C(C)C1O)CC(O)C2C(=O)O` (stereo not drawn) [Nystatin]: the “inhibitory effect on the uptake of CP-AgNPs” value in [3] is reported as “did not have a statistically significant inhibitory effect”. Consider `NC12CC3CC(CC(C3)C1)C2` [amantadine], for which, in data set [4], the “results in Huntington's disease” value is listed as “preliminary positive results”.

Consider `COC(=O)C(c1ccccc1)C1CCCCN1` (stereo not drawn) [methylphenidate], for which the “treatment of ADHD” value in [5] (ADHD) was “safe and effective”. Besides, in data set [5] (children with ASD), the “treatment of hyperactivity in children with ASD” value is reported as “effectively treat hyperactivity in children with ASD”. For the molecule `CC(Cc1ccccc1)(NC(=O)CN)c1ccccc1` (stereo not drawn) [remacemide], the “results in Huntington's disease” value in data set [4] is recorded as “preliminary positive results”. For `Nc1nc2ccc(OC(F)(F)F)cc2s1` [riluzole, 2-amino-6-(trifluoromethoxy)benzothiazole], the “survival time in subjects with ALS” value in data set [6] is “borderline significance with respect to survival time”; in data set [6] (listed as Riluzole) it was “improved survival time in subjects with ALS”. Consider “FAM-Ahx-SRRVISRAKLAAAL-OH ({FAM-Ahx}-SRRVISRAKLAAAL-OH) [FAM-Cerepep]”, for which the “association with microglia (CD11b)” value in data set [7] is on record as “could be detected associated with microglia in the brain tissues”. Moreover, in data set [8], the detection in brain entry was “could be detected in the brain tissues”. Further, the “association with neurons (NeuN)” value in data set [9] was “could be detected associated with neurons in the brain tissues”. In addition, the “binding and uptake of FAM-peptide” value in data set [10] was “bound to and was taken up by Neuro2A cells”. Further, the “association with astrocytes (GFAP)” value in data set [11] is listed as “could be detected associated with astrocytes in the brain tissues”. Regarding “FAM-RPARPAR-OH ({FAM}-RPARPAR-OH) [reference compound]”, in data set [10], the “binding and uptake of FAM-peptide” value is “only background binding”. For “RAP: Receptor Associated Protein, inhibitor of several LDL-receptor proteins”, the “inhibition of CP-neutravidin binding to LRP1” value in data set [2] was “inhibited”. For the same molecule, the “effect on AgNP-Cerepep binding to P3 cells” value in data set [12] is on record as “reduced”.
